Activity calls are given as the source filed them. The rule behind the calls is not given here.
What was measured:
[1] = Antioxidant activity assessed as hydrogen peroxide radical scavenging activity; assay type: functional
[2] = system: Radical scavenging activity; experiment: Antioxidant activity assessed as DPPH radical scavenging activity after 30 mins; assay type: functional
HT-22 [3] = experiment: Neuroprotective activity in mouse HT22 cells assessed as inhibition of glutamate-induced increase of intracellular calcium level at 10 to 100 uM after 2 hrs by Fura-2 AM assay; assay type: functional, cell-based
Mus musculus [4] = experiment: Toxicity in ICR mouse assessed as motor ability by measuring reduction of scopolamine-induced swimming speed at 1 to 50 mg/kg, po administered 1 hr before scopolamine challenge measured on day 4 by Morris water maze test; assay type: organism-based; set-up: dose 1-50 mg/kg, route oral; settings: in vivo
Mus musculus [5] = experiment: Cognitive-enhancing effect in ICR mouse assessed as reduction of scopolamine-induced increase in mean distance to platform at 1 to 50 mg/kg, po administered 1 hr before scopolamine challenge measured on day 4 by Morris water maze test; assay type: functional, organism-based
Mus musculus [6] = experiment: Cognitive-enhancing effect in ICR mouse assessed as reduction of scopolamine-induced escape latency at 50 mg/kg, po administered 1 hr before scopolamine challenge measured on day 2 to 4 during trial 1 and 2 by Morris water maze test; assay type: functional, organism-based; set-up: dose 50 mg/kg
Mus musculus [7] = experiment: Cognitive-enhancing effect in ICR mouse assessed as reduction of scopolamine-induced escape latency at 40 mg/kg, po administered 1 hr before scopolamine challenge measured on day 3 during trial 1 and 2 by Morris water maze test; assay type: functional, organism-based; set-up: dose 40 mg/kg
Mus musculus [8] = experiment: Cognitive-enhancing effect in ICR mouse assessed as reduction of scopolamine-induced escape latency at 1 to 20 mg/kg, po administered 1 hr before scopolamine challenge measured on day 4 during trial 1 and 2 by Morris water maze test; assay type: functional, organism-based
Mus musculus [9] = experiment: Cognitive-enhancing effect in ICR mouse assessed as reduction of scopolamine-induced escape latency at 1 to 20 mg/kg, po administered 1 hr before scopolamine challenge measured on day 3 during trial 1 and 2 by Morris water maze test; assay type: functional, organism-based
HT-22 [10] = experiment: Neuroprotective activity in mouse HT22 cells assessed as inhibition of glutamate-induced cell death after 24 hrs by MTT assay; assay type: functional, cell-based
HT-22 [11] = experiment: Neuroprotective activity in mouse HT22 cells assessed as inhibition of glutamate-induced cell death at 10 uM after 24 hrs by MTT assay; assay type: functional; settings: HT-22, 24 h

| IC50 [1] | IC50 [2] | Compound | inhibition [1] | inhibition [2] | inhibition (HT-22 [3]) | Activity (Mus musculus [4]) | Activity (Mus musculus [5]) | Activity (Mus musculus [6]) | Activity (Mus musculus [7]) | Activity (Mus musculus [8]) | Activity (Mus musculus [9]) | inhibition (HT-22 [10]) | EC50 (HT-22 [10]; HT-22, 24 h) | inhibition at 10 µM (HT-22 [11]) |
| --- | --- | --- | --- | --- | --- | --- | --- | --- | --- | --- | --- | --- | --- | --- |
| 76.8 µM | 35.2 µM | O=C1O[C@H]([C@@H](O)CO)C(O)=C1O [ASCORBIC ACID] | – | – | – | – | – | – | – | – | – | – | – | – |
| 90.8 µM | 98.1 µM | COc1ccc(C(C)=O)c(O)c1O | Dose-dependent effect | Dose-dependent effect | Active | Non-toxic | Active | Active | Active | Active | inactive | Dose-dependent effect | 10.9 µM | 50% |
